Data set [1] concerns time to first ejaculation of male rats. Description: Time until first ejaculation in male rats, 5-HT1A-receptor antagonist in conjunction with serotonergic agent (Example 3). The data set is classed as in vivo. The settings on record: antagonist in conjunction with Citalopram, Fluoxetine, Ifoxetine, Paroxetine or Zimelidine shortly before sexual activity, relative to the rat's own average without treatment. As for the experimental part: In a study with male rats, 10 different 5-HT1A-receptor antagonists are administered in conjunction with five different serotonergic agents shortly before sexual activity.

The next data set has as its system male rat sexual behavior. Put plainly: Male rat sexual behavior model (sexually trained males, 30-min access to receptive females). The settings on record: for behavioral effects on sexual behavior, antagonist alone: separate experiments, not shown. The data set is classed as in vivo. The source says:
A model of sexual behavior in male rats was developed that is predictive of SSRI-effects on human male sexual behavior (Bijlsma et al. 2014; Olivier et al. 2006; 2017). In this male rat sexual behavior model, SSRIs inhibit sexual behavior, but only upon chronic administration thereby mimicking and modeling the SSRI effects in human males.
Male rats were sexually trained till they obtained a stable sexual performance (on average 2 ejaculations per 30-min, the standard testing duration). Animals were injected intraperitoneally 30-min before testing after which males had 30 min access to the females that were behaviorally sexually receptive. A trained researcher scored the sexual behavior of the males according to published and accepted methods (Chan et al. 2010).

Another data set concerns the target T1, 5-HT1A-receptor (Homo sapiens, UniProt P08908).
T1 construct: host or cells: brain of healthy human volunteers (in vivo PET)
T1 sequence (P08908 1-422): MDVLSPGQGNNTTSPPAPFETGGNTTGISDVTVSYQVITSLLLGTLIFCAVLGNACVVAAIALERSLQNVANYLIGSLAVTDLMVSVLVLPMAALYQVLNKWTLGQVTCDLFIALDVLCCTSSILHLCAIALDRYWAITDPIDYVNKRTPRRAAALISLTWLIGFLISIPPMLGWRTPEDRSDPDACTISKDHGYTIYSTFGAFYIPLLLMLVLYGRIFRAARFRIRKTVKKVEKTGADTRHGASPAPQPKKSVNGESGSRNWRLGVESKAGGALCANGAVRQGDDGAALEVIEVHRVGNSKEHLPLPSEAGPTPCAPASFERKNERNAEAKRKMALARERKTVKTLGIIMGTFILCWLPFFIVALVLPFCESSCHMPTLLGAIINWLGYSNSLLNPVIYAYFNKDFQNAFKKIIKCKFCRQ
The following applies: healthy human volunteers, cited from earlier work.

The test system of another data set is 5-HT1A receptor. The following applies: cited from earlier work.

Turning to `CC(C)NCC(O)COc1cccc2ccccc12` (centres unmarked) [Propranolol], the “Potential average increase in time to first ejaculation (%)” value (“Potential average increase in time … (%)” below) in data set [1] worked out at 87%.
The same measure, in the same setting: in the case of `OC(CNCC(O)C1CCc2cc(F)ccc2O1)C1CCc2cc(F)ccc2O1` (centres unmarked) [Nebiovolol] it was 95%.
The same measure, in the same setting: in the case of `CSc1ccc2c(c1)C(N1CCN(C)CC1)Cc1ccccc1S2` (centres unmarked) [Methiothepin] it was 97%; in that of `C=CCc1ccccc1OCC(O)CNC(C)C` (centres unmarked) [Alprenolol], 75%; in that of `CC(C)NCC(O)COc1cccc2[nH]ccc12` (centres unmarked) [Pindolol], 46%.
`COc1ccccc1N1CCN(CCN(C(=O)C2CCCCC2)c2ccccn2)CC1` [WAY100,635, reference compound]: the “effect on male rat sexual behavior” value in the data set with male rat sexual behavior (WAY100,635 (0.3 mg/kg) in combination with paroxetine (5 mg/kg), own data, compared with DU125530 + paroxetine) was “comparable inhibition”. Further, in the data set with male rat sexual behavior (WAY100,635 alone at doses up to 1 mg/kg, IP), the “behavioral effects on sexual behavior, antagonist alone” value is “no behavioral effects on sexual behavior”.
Consider `c1ccc(C(c2ccccc2)N2CCN(CCCC3(c4ccccc4)OCCO3)CC2)cc1` [Dotarizine], for which the “Potential average increase in time … (%)” value in data set [1] is reported as 67%.
As for `O=C(CCCN1CCC2(CC1)C(=O)NCN2c1ccccc1)c1ccc(F)cc1` [Spiperone], the “Potential average increase in time … (%)” value in data set [1] is listed as 80%.
For the molecule `O=C1c2ccccc2S(=O)(=O)N1CCCCN1CCN(c2cc(Cl)cc3c2OCCO3)CC1` [DU125530, 2-[4-[4-(7-chloro-2,3-dihydro-1,4-benzodi-oxin-5-yl)-1-piperazinyl]butyl]-1,2-benzisothiazol-3(2H)-one-1,1-dioxide], the “behavioral effects on sexual behavior, antagonist alone” value in the data set with male rat sexual behavior (DU125530 alone at doses up to 20 mg/kg) is listed as “no behavioral effects on sexual behavior”. Besides, the “effect on male rat sexual behavior” value in the data set on male rat sexual behavior (acute DU125530 20 mg/kg in combination with acute paroxetine 5 mg/kg, intraperitoneally 30 min before testing) is given as “strongly inhibited male rat sexual behavior”. In addition, the “effects when administered alone” value with male rat sexual behavior (administered alone) is “no effects”. The “pharmacological activity when combined with paroxetine” value in the data set on male rat sexual behavior (combined with paroxetine) is “pharmacologically active”. In addition, the safety entry with male rat sexual behavior (rat, in vivo) is recorded as “safe”. In data set [1], the “Potential average increase in time … (%)” value worked out at 254%. In addition, the 5-HT1A-receptor occupancy at 5-HT1A-receptor (10 to 40-mg daily dose range, 2 h post the last dose, dose-dependent) is recorded as 0-72%. Besides, at 5-HT1A-receptor (10 to 40-mg daily dose range), the side effects entry is recorded as “minor side effects” and the tolerability entry is listed as “well tolerated”. For the same molecule, the “correlation of occupancy with plasma levels” value on 5-HT1A-receptor was “correlated highly”. For the same molecule, the “5-HT1A receptor antagonistic activities in vitro and in vivo” value in the data set on 5-HT1A receptor (Mos et al. 1997) is recorded as “selective 5-HT1A receptor antagonistic activities”. Besides, in the data set on 5-HT1A receptor (given on itself, Joordens et al. 1997), the “biological activity given on itself” value is “without biological activity”. For the same molecule, the “5-HT1A receptor antagonistic activity in several animal models” value in the data set with 5-HT1A receptor (several animal models) is “nice and reliable 5-HT1A receptor antagonistic activity”.
Regarding `Cc1nc2n(c(=O)c1CCN1CCC(c3noc4cc(F)ccc34)CC1)CCCC2` [Risperidone], the “Potential average increase in time … (%)” value in data set [1] is 102%.

These data come from patent US20220265641A1, “SEROTONERGIC AGENT AND 5-HT1A-RECEPTOR ANTAGONIST” (ATLAS PHARMACEUTICALS BV, priority 2019, published 2022).
